Experimental data from patent publication US8791132B2, “Compounds and methods for treatment of hypertension” (Medivation Technologies, Inc., priority 2011, dated 2014).
Where two headings read alike, the source gives them in different places.

Columns and labels:
[1] = target: T1, human recombinant adrenergic α2B receptor (Homo sapiens, UniProt P18089); assay: Radioligand binding, adrenergic α2B ([3H]Rauwolscine); conditions: [3H]Rauwolscine; for Percentage inhibition of ligand binding, Adrenergic α2B: 0.03 µM
T1 construct: expressed in transfected cells; host or cells: CHO-K1
T1 sequence (P18089 1-450): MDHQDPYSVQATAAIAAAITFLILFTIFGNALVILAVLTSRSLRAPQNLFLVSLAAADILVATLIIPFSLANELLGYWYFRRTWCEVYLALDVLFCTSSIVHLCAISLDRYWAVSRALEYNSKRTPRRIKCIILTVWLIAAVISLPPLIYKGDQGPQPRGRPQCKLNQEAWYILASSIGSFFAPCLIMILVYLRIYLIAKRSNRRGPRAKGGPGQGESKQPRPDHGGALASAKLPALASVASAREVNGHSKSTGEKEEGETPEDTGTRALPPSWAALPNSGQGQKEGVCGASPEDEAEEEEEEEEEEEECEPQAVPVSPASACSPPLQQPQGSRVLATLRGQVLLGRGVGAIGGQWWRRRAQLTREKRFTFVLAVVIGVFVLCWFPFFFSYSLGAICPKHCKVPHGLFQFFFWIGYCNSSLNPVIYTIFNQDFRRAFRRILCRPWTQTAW
Outline: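 Receptor expressed in CHO-K1 cells, assayed in 50 mM Tris-HCl pH 7.4 with 12.5 mM MgCl2, 1 mM EDTA and 0.2% BSA. Compounds were incubated with 2.5 nM [3H]Rauwolscine for 60 min at 25° C; 10 μM Prazosin defined non-specific binding. Filter counting gave percent inhibition of specific binding.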

[2] = target: T2, human recombinant adrenergic α2A receptor (Homo sapiens, UniProt P08913); assay: Radioligand binding, adrenergic α2A ([3H]MK-912); conditions: [3H]MK-912; for Percentage inhibition of ligand binding, Adrenergic α2A: 0.1 µM
T2 construct: expressed in transfected cells; host or cells: insect Sf9 cells
T2 sequence (P08913 1-465): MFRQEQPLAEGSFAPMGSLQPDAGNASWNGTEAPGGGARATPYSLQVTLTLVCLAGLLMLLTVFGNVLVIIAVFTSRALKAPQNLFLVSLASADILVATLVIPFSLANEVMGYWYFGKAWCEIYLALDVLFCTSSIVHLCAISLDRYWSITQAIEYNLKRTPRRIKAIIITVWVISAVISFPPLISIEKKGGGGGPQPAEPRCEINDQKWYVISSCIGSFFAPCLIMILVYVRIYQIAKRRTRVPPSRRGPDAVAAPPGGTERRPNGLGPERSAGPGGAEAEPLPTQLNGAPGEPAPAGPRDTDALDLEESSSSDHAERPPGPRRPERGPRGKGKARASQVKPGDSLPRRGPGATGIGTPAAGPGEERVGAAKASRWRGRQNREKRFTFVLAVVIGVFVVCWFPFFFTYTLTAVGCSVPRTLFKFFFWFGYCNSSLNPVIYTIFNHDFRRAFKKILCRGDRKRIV
Outline: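 Sf9-expressed receptor was incubated with compound for 60 min at 25 °C in modified Tris-HCl buffer, pH 7.4. Nonspecific binding was taken as that remaining with 10 μM WB-4101.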

[3] = target: T3, rat adrenergic α1B receptor (Rattus norvegicus, UniProt P15823); assay: Radioligand binding, adrenergic α1B ([3H]Prazosin); conditions: [3H]Prazosin; for Percentage inhibition of ligand binding, Adrenergic α1B: 0.1 µM
T3 construct: rat adrenergic α1B receptor obtained from Wistar Rat liver; from tissue; host or cells: Wistar rat liver
T3 sequence (P15823 1-515): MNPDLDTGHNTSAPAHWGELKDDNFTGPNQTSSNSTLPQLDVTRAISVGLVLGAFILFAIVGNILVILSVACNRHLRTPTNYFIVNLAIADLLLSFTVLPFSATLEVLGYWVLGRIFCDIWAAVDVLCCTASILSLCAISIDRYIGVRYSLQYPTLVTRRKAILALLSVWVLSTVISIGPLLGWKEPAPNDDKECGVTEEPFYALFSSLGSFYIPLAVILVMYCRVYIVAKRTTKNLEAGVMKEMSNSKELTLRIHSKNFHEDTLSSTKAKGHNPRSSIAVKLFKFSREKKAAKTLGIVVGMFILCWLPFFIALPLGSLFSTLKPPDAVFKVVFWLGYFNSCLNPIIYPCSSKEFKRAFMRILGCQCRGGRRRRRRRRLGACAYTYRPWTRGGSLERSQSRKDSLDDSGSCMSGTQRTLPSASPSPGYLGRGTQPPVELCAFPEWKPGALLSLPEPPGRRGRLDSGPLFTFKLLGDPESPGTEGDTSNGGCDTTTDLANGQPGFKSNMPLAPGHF
Outline: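 Filter binding with Wistar rat liver α1B preparation: test compound plus 0.25 nM [3H]prazosin, 1 h at 25° C in modified Tris-HCl buffer pH 7.4.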

[4] = compound at 0.03 μM, repeat assays, each datapoint shown
[5] = compound at 0.1 μM, repeat assays, each datapoint shown
[6] = compound at 0.1 μM, repeat assays, each datapoint shown, read-out: Percentage inhibition of ligand binding, Adrenergic α2A
[7] = compound at 0.03 μM, repeat assays, each datapoint shown, read-out: Percentage inhibition of ligand binding, Adrenergic α2B
[8] = compound at 0.1 μM, repeat assays, each datapoint shown, read-out: Percentage inhibition of ligand binding, Adrenergic α1B
[9] = read-out: Percentage inhibition of ligand binding, Adrenergic α2A (0.1 μM), compound at 0.1 μM, repeat datapoints each shown
[10] = read-out: Percentage inhibition of ligand binding, Adrenergic α1B (0.1 μM), compound at 0.1 μM, repeat datapoints each shown

SMILES	inhibition at 0.1 µM [2, 6]	inhibition at 0.03 µM [1, 7]	inhibition at 0.1 µM [3, 8]	other results
Cc1ccc2c(c1)c1c(n2CC(O)c2cccnc2)CN(C)CC1 (stereo not drawn) [compound 43, 2-(2,6-dimethyl-1,2,3,4-tetrahydro-β-carbolin-9-yl)-1-pyridin-3-yl-ethanol]				Percentage inhibition of ligand binding, Adrenergic α2B [1, 4]: 24%; Percentage inhibition of ligand binding, Adrenergic α2A [2, 5]: −1%; Percentage inhibition of ligand binding, Adrenergic α1B [3, 5]: 21%
COc1cccc2c3c(n(CC(O)c4ccncc4)c12)CCN(C)C3 (stereo not drawn) [compound 44, 2-(6-methoxy-2-methyl-3,4-dihydro-1H-pyrido[4,3-b]indol-5(2H)-yl)-1-(pyridin-4-yl)ethanol]				Percentage inhibition of ligand binding, Adrenergic α2B [1, 4]: 56%; Percentage inhibition of ligand binding, Adrenergic α2A [2, 5]: −1%; Percentage inhibition of ligand binding, Adrenergic α1B [3, 5]: −3%
COc1ccc(C(O)Cn2c3c(c4cc(C)ccc42)CN(C)CC3)cn1 (stereo not drawn) [compound 51, 2-(2,8-dimethyl-1,2,3,4-tetrahydro-pyrido[4,3-b]indol-5-yl)-1-(6-methoxy-pyridin-3-yl)-ethanol]				Percentage inhibition of ligand binding, Adrenergic α2B [1, 4]: 82%; Percentage inhibition of ligand binding, Adrenergic α2A [2, 5]: 20%; Percentage inhibition of ligand binding, Adrenergic α1B [3, 5]: 43%
Cc1cnc2c(c1)c1c(n2CC(O)c2ccncc2)CCN(C)C1 (stereo not drawn) [compound 55, 2-(3,6-dimethyl-5,6,7,8-tetrahydro-1,6,9-triaza-fluoren-9-yl)-1-pyridin-4-yl-ethanol]	13%			Percentage inhibition of ligand binding, Adrenergic α2B [1, 4]: 63%; Percentage inhibition of ligand binding, Adrenergic α1B [3, 5]: 37%
Cc1cnc2c(c1)c1c(n2CC(O)c2ccncc2)CCNC1 (stereo not drawn) [compound 58, 2-(3-methyl-5,6,7,8-tetrahydro-1,6,9-triaza-fluoren-9-yl)-1-pyridin-4-yl-ethanol]				Percentage inhibition of ligand binding, Adrenergic α2B [1, 4]: 26%; Percentage inhibition of ligand binding, Adrenergic α2A [2, 5]: −1%; Percentage inhibition of ligand binding, Adrenergic α1B [3, 5]: 21%
Cc1ccc2c(c1)c1c(n2CC(O)c2cccnc2)CCN(C)C1 (stereo not drawn) [compound 62]	1%	76%	16%	
COc1ccc(C(C)(O)Cn2c3c(c4cc(C)ccc42)CN(C)CC3)cn1 (stereo not drawn) [compound 64, 1-(2,8-dimethyl-1,2,3,4-tetrahydro-pyrido[4,3-b]indol-5-yl)-2-(6-methoxy-pyridin-3-yl)-propan-2-ol]	12%	62%	25%	
CN1CCc2c(c3ccc(C(F)(F)F)cc3n2CC(O)c2ccncc2)C1 (stereo not drawn) [compound 65, 2-(2-methyl-7-(trifluoromethyl)-3,4-dihydro-1H-pyrido[4,3-b]indol-5(2H)-yl)-1-(pyridin-4-yl)ethanol]	-3%	64%	-13%	
COc1ccc(C(O)Cn2c3c(c4cc(C)ccc42)CN(C)CC3)cc1OC (stereo not drawn) [compound 66, 1-(3,4-dimethoxy-phenyl)-2-(2,8-dimethyl-1,2,3,4-tetrahydro-pyrido[4,3-b]indol-5-yl)-ethanol]	15%	69%	48%	
Cc1ccc2c(c1)c1c(n2CC(O)c2ccc(C(=O)O)cc2)CCN(C)C1 (stereo not drawn) [compound 67, 4-[2-(2,8-dimethyl-1,2,3,4-tetrahydro-pyrido[4,3-b]indol-5-yl)-1-hydroxy-ethyl]-benzoic acid]	-7%	17%	12%	
Cc1ccc2c(c1)c1c(n2CC(=O)c2cc[n+]([O-])cc2)CCN(C)C1 [compound 68]	1%	4%	2%	
CC(O)c1ccc2c(c1)c1c(n2CC(O)c2ccncc2)CCN(C)C1 (stereo not drawn) [compound 70]	10%	26%	8%	
Cc1ccc2c(c1)c1c(n2CC(O)c2ccncc2)C(C)(C)CN(C)C1 (stereo not drawn) [compound 71, 1-pyridin-4-yl-2-(2,4,4,8-tetramethyl-1,2,3,4-tetrahydro-pyrido[4,3-b]indol-5-yl)-ethanol]	11%	9%	11%	
CCOC(=O)N1CCc2c(c3cc(C)ccc3n2CC(O)c2ccncc2)C1 (stereo not drawn) [compound 72, ethyl 3,4-dihydro-5-(2-hydroxy-2-(pyridin-4-yl)ethyl)-8-methyl-1H-pyrido[4,3-b]indole-2(5H)-carboxylate]	-2%	12%	6%	
Cc1ccc2c(c1)c1c(n2CC(O)c2ccncc2)CC2CCC1N2C (stereo not drawn) [compound 73]	15%	61%	17%	
Cc1ccc2c(c1)c1c(n2/C=C/c2ccncc2)CCNC1 [compound 79, 8-methyl-5-(2-(pyridin-4-yl)vinyl)-2,3,4,5-tetrahydro-1H-pyrido[4,3-b]indole]	19%	77%	34%	
C/C(=C/n1c2c(c3cc(C)ccc31)CN(C)CC2)c1cn[nH]c1 [compound 80]	12%	81%	49%	
Cc1cccc2c3c(n(CC(O)c4ccncc4)c12)CCN(C)C3 (stereo not drawn) [compound 82, 2-(2,6-dimethyl-1,2,3,4-tetrahydro-pyrido[4,3-b]indol-5-yl)-1-pyridin-4-yl-ethanol]	5%	79%	16%	
Cc1ccc2c(c1)c1c(n2CCc2cncc(F)c2)CCN(C)C1 [compound 117, 5-[2-(5-fluoro-pyridin-3-yl)-ethyl]-2,8-dimethyl-2,3,4,5-tetrahydro-1H-pyrido[4,3-b]indole]				inhibition at 0.1 µM ([1]; read-out: Percentage inhibition of ligand binding, Adrenergic α2B (0.1 μM), compound at 0.1 μM, repeat datapoints each shown): 68%; inhibition at 0.1 µM [2, 9]: 18%; inhibition at 0.1 µM [3, 10]: 59%
C=C(Cn1c2c(c3cc(C)ccc31)CN(C)CC2)c1cccnc1 [compound 132]				inhibition at 0.03 µM ([1]; read-out: Percentage inhibition of ligand binding, Adrenergic α2B (0.03 μM), compound at 0.03 μM, repeat datapoints each shown): 91%; inhibition at 0.1 µM [2, 9]: 19%; inhibition at 0.1 µM [3, 10]: 28%
